# Patent US12544368B2, “Compositions and methods for reducing cancer stem cells” (The Regents of the University of Colorado, A Body Corporate, priority 2018, dated 2026)
# Key:
# LSCs = experiment: In vitro viability of LSCs from AML patient samples; type: cell-based, human
# ETC complex II = experiment: Glutathione, sdhA glutathionylation and ETC complex II activity in primary AML specimens in vitro; type: cell-based, human
# MDS stem cells = experiment: Patient bone marrow derived xenograft model of MDS in NSG-S mice; type: in vivo; settings: for engraftment models with single agent toxicity for human CD45+ cells: three high-risk MDS patient xenografts
# Excerpt: To further evaluate the clinical potential of various agents for targeting of MDS stem cells, an in vivo patient bone marrow derived xenograft model of MDS was developed. The system employed the use of primary MDS specimens transplanted into immune deficient NSG-S mice.
# Xenografts established using specimens from three independent high-risk MDS patients were used. Drug treatments included single agent therapy with omacetaxine, venetoclax (ABT), azacitidine, the combination of omacetaxine and venetoclax, or the combination of omacetaxine and azacitidine. To evaluate overall drug activity, the reduction of total human hematopoietic cells was measured using the CD45 (pan-hematopoietic) antigen as a marker. […] Next, drug activity in the stem cell compartment was monitored by gating on the CD34+/CD38−/CD123+ subpopulation.
# CD34+/CD38−/CD123+ cells = experiment: Viability of cell populations from MDS patient samples in vitro; type: cell-based, human; settings: for viability / killing of CD123+ MDS stem cells: MDS patient samples, anisomycin 200 nM and 400 nM, ABT-199 200 nm, omacetaxine 200 nM, azacitidine 2.5 μM
# Protocol: Strategies involving inhibiting protein translation were investigated as a means of improving therapeutic outcomes for MDS through the targeting of pathways deregulated in the CD123+ MDS stem cell compartment. A reagent grade compound, anisomycin was tested. Anisomycin is known to inhibit protein translation and induce “ribotoxic stress”.
# (§1) Next, the drug omacetaxine mepesuccinate was tested. Omacetaxine is a protein synthesis inhibitor which is FDA approved.
# The drug azacitidine was also tested.
# The second major phenotype found to be deregulated in CD123+ cells was oxidative phosphorylation and redox status. Thus, the ability of the BCL-2 inhibitor ABT-199 (venetoclax) to preferentially eliminate MDS stem cells was tested.
# ROS-low LSCs = experiment: In vitro amino acid uptake, amino acid levels and transporter expression in LSCs; type: cell-based, human; settings: LSCs isolated from three patients
# Protocol: Amino acid levels and cell viability were then measured.
# AML blasts = experiment: OXPHOS (seahorse assay) in leukemia cells from patients pre and 24 hours post treatment; type: in vivo, human; settings: patients receiving single agent
# protein synthesis = experiment: Protein translation levels (OP-puro) in MDS cells; type: cell-based, human; settings: MDS patient samples, 4 hours
# Protocol: The upregulation of the translation gene sets indicates a potential for increased protein synthesis in the CD123+ stem cell population. To further investigate changes in translational activity, protein synthesis levels were measured by culturing cells with a fluorescent substrate known as OP-puro, which is incorporated into newly synthesized polypeptide chains and can be quantified as a measure of overall protein synthesis activity.
# as §1
# primary MDS cells = experiment: Mitochondrial respiration of primary MDS cells; type: cell-based, human
# Excerpt: An additional component of the efficacy observed with combined ABT-199 and omacetaxine may involve suppression of MCL-1 as increased MCL-1 expression in CD34+/CD123+ MDS cells was observed. Resistance to BCL-2 inhibition can be overcome via treatment with protein synthesis inhibitors, which down-regulate expression of MCL-1.
# CD34+ cells = experiment: Valinomycin treatment of normal CD34+ cells; type: cell-based, human; settings: control and shFIS1 CD34+ cells
# MOLM-13 cells = experiment: Valinomycin-induced mitophagy in MOLM-13 cells; type: cell-based, human; settings: control MOLM-13 cells
# Protocol: To test whether FIS1 is responsible for the distinct mitochondrial morphology, shRNA-mediated knockdown studies in both the AML cell line MOLM-13 and primary AML cells were performed to examine the effect of FIS1 loss on mitochondrial dynamics. […] To determine if the increased mitochondrial content in FIS1-depleted AML cells is caused by a deficient state of mitophagy, mitophagy was induced in the FIS1-depleted and control cells using the mitochondrial stress inducer valinomycin. […] Expression of PINK1, a kinase stabilized upon mitophagy activation and involved in the clearance of damaged mitochondria was also measured.
# [1] = tested on: LSCs and non-LSCs from human AML specimens; experiment: Valinomycin treatment of freshly sorted LSCs and non-LSCs; type: cell-based
# Protocol: To determine whether primary AML cells with a higher expression of FIS1 have increased mitophagy activity, valinomycin treatment experiments were performed on freshly sorted LSCs and non-LSCs from human AML specimens.
# de novo LSCs = experiment: APO866 treatment of LSCs from de novo AML patients (NAD+, viability, colony formation, OXPHOS); type: cell-based, human
# Excerpt: (§2) To determine if nicotinamide metabolism is important in LSC survival, particularly in the context of relapsed disease, LSCs were first isolated from de novo AML and relapsed AML patients and analyzed. […] Nicotinamide is a precursor of NAD+, an essential coenzyme in energy metabolism. To test if relapsed LSCs are dependent on nicotinamide metabolism to maintain energy metabolism, nicotinamide metabolism was disrupted in LSCs using the small molecule APO866, which is an inhibitor of Nampt, the rate-limiting enzyme for conversion of nicotinamide to NAD+.
# (§3) To better understand the mechanism by which inhibiting nicotinamide metabolism targets relapsed LSCs, changes in OXPHOS and glycolysis activity in de novo and relapsed LSCs after APO866 treatment was measured. […] No change in glycolysis was observed.
# isocitrate dehydrogenase = experiment: TCA cycle enzyme activity in relapsed LSCs after APO866; type: cell-based, human; settings: 4 hours
# malate dehydrogenase = experiment: as above; type: cell-based, human; settings: 4 hours
# [2] = tested on: α-ketoglutarate dehydrogenase; experiment: as above; type: cell-based, human; settings: 4 hours
# relapsed LSCs = experiment: APO866 treatment of LSCs from relapsed AML patients (NAD+, viability, colony formation, OXPHOS, glycolysis, metabolic flux); type: cell-based, human
# Excerpt: as §2, §3
# To determine how APO866 reduced OXPHOS, stable isotope metabolic flux of amino acids, the fatty acid palmitate, and glucose into the TCA cycle after APO866 treatment was measured.
# [3] = tested on: relapsed AML patient sample; experiment: Engraftment of APO866-treated relapsed AML patient sample into immune deficient mice; type: in vivo; settings: sample treated for 24 hours before engraftment
compound,measurement,setting,value
CCOC(=O)[C@@]1(CCCCCCOc2ccc(Cl)cc2)CO1 [etomoxir],sensitization of LSCs,LSCs; venetoclax/azacitidine resistant LSCs,potently sensitizes LSCs to venetoclax+azacitidine
sorbitan sesquioleate [SSO],normal HSPCs viability or colony forming ability,normal HSPCs,did not affect
Nc1ncn([C@@H]2O[C@H](CO)[C@@H](O)[C@H]2O)c(=O)n1 [azacitidine],ROS levels,ETC complex II,can increase ROS levels
same,engraftment models with single agent toxicity for human CD45+ cells,MDS stem cells,one
same,viability / killing of CD123+ MDS stem cells,CD34+/CD38−/CD123+ cells,no significant decreases in viability
same,toxicity between CD123+ vs. CD123−,CD34+/CD38−/CD123+ cells; seven high-risk MDS patient specimens,no differential toxicity
same,ROS-low LSC and ROS-high AML blast viability,"LSCs; in vitro, 500 nM venetoclax, 2.5 μM azacitidine, 24 hours",potentiates the effect of venetoclax
same,amino acid transporter expression,ROS-low LSCs,Neither venetoclax nor azacitidine could reduce expression
same,patients without alterations in OXPHOS levels,AML blasts,two of three
"COC(=O)C[C@](O)(CCCC(C)(C)O)C(=O)O[C@@H]1C(OC)=C[C@]23CCCN2CCc2cc4c(cc2[C@H]13)OCO4 [omacetaxine, omacetaxine mepesuccinate]",protein translation levels,protein synthesis,effective at decreasing protein translation levels
same,engraftment models with single agent toxicity in the more primitive cells,MDS stem cells; CD34+/CD38−/CD123+ subpopulation,2 of 3
same,reduction in CD34+/CD38−/CD123+ cells,MDS stem cells; each xenograft,greater than or equal to 50%
same,reduction in CD34+/CD38−/CD123+ cells,MDS stem cells; one xenograft,> 80%
same,engraftment models with single agent toxicity for human CD45+ cells,MDS stem cells,two
same,viability / killing of CD123+ MDS stem cells,CD34+/CD38−/CD123+ cells,specifically targeted CD123+ cells
same,mitochondrial respiration,primary MDS cells,impairs mitochondrial respiration
CC(C)[C@@H]1NC(=O)[C@H](C)OC(=O)[C@@H](C(C)C)NC(=O)[C@@H](C(C)C)OC(=O)[C@H](C(C)C)NC(=O)[C@H](C)OC(=O)[C@@H](C(C)C)NC(=O)[C@@H](C(C)C)OC(=O)[C@H](C(C)C)NC(=O)[C@H](C)OC(=O)[C@@H](C(C)C)NC(=O)[C@@H](C(C)C)OC1=O [valinomycin],mitochondrial mass,CD34+ cells,induced mitochondrial accumulation
same,mitochondrial content,MOLM-13 cells,loss of mitochondria
same,PINK1 expression,MOLM-13 cells; 5 mM valinomycin for 3 hr,increased PINK1 expression
same,mitochondrial mass in LSCs,[1]; freshly sorted LSCs,efficient clearance of mitochondria
same,mitochondrial mass in non-LSCs,[1]; freshly sorted non-LSCs,further accumulation of mitochondrial mass
"COc1ccc(C[C@H]2NC[C@H](O)[C@H]2OC(C)=O)cc1 [Anisomycin, anisomycin]",viability / killing of CD123+ MDS stem cells,CD34+/CD38−/CD123+ cells,selective killing
O=C(/C=C/c1cccnc1)NCCCCC1CCN(C(=O)c2ccccc2)CC1 [APO866],normal hematopoietic stem cell frequency or colony forming ability,normal HSPCs,did not affect
same,NAD+,de novo LSCs; LSCs from de novo AML patient samples,significant decrease in NAD+
same,viability and colony-forming ability,"de novo LSCs; LSCs from de novo, untreated patients, 24 hours","not LSCs from de novo, untreated patients"
same,OXPHOS and OXPHOS capacity,"de novo LSCs; de novo LSCs, 4 hours",not de novo LSCs
same,isocitrate dehydrogenase activity,isocitrate dehydrogenase,significantly decreased
same,malate dehydrogenase activity,malate dehydrogenase,significantly decreased
same,α-ketoglutarate dehydrogenase activity,[2],significantly decreased
same,NAD+,relapsed LSCs; LSCs from relapsed AML patient samples,significant decrease in NAD+
same,viability and colony-forming ability,"relapsed LSCs; LSCs from relapsed AML patients, 24 hours",decreased viability and colony-forming ability
same,glycolysis,relapsed LSCs; de novo and relapsed LSCs,No change
same,OXPHOS and OXPHOS capacity,"relapsed LSCs; relapsed LSCs, 4 hours",significant decrease
same,"citrate, malate, and α-ketoglutarate from amino acids and palmitate",relapsed LSCs; stable isotope metabolic flux,increased accumulation
same,glycolysis or glucose contribution to the TCA cycle,relapsed LSCs; stable isotope metabolic flux,No changes
same,leukemia engraftment,[3],significant reduction in leukemia engraftment
